# Assays:
# [1] = target: Insulin receptor (Homo sapiens) (UniProt P06213); conditions: Compound concentration 1000.0 nM
# [2] = target: Vascular endothelial growth factor receptor 1 (Homo sapiens) (UniProt P17948); conditions: Compound concentration 1000.0 nM
# [3] = target: T1, Ephrin type-B receptor 1 (Homo sapiens) (UniProt P54762); conditions: Compound concentration 1000.0 nM
# T1 sequence (whole entry): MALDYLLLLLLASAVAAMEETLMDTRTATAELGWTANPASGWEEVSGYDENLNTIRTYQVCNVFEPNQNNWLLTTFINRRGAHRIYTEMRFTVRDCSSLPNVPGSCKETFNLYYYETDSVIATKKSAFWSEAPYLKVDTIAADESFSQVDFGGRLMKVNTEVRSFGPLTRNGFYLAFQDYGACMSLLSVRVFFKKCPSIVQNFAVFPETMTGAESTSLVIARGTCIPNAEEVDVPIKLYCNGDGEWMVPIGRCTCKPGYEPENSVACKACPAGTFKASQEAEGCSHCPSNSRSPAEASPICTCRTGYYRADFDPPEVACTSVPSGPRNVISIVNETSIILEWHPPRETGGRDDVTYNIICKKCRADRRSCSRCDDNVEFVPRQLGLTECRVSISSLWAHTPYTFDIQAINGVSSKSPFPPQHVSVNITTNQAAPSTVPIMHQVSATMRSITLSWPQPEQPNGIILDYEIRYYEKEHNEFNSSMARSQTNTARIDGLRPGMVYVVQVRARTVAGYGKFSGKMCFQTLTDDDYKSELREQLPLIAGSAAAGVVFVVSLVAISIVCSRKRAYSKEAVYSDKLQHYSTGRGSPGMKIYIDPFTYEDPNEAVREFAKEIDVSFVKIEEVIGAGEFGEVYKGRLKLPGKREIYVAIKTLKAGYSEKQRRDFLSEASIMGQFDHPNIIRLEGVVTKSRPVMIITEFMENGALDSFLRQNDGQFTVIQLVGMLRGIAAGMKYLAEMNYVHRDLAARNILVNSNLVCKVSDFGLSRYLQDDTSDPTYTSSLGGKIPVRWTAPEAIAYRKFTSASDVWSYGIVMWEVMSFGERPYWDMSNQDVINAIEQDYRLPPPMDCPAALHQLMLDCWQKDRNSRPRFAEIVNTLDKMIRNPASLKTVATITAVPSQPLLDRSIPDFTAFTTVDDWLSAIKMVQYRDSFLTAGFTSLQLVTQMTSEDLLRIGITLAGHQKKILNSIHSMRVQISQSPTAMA
# [4] = target: Atypical kinase COQ8B, mitochondrial (Homo sapiens) (UniProt Q96D53); conditions: Compound concentration 1000.0 nM
# [5] = target: T2, Serine/threonine-protein kinase Sgk2 (Homo sapiens) (UniProt Q9HBY8); conditions: Compound concentration 1000.0 nM
# T2 sequence (whole entry): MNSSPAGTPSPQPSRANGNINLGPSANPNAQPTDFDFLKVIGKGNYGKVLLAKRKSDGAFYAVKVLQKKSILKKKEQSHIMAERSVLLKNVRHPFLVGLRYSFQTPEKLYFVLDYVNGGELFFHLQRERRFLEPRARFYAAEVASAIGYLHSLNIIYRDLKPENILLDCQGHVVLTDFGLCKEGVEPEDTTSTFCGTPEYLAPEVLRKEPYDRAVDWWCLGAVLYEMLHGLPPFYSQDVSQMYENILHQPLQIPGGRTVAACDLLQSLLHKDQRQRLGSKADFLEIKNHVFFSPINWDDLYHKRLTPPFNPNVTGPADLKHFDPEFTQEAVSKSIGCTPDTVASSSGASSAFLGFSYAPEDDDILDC
# [6] = target: T3, Serine/threonine-protein kinase BRSK1 (Homo sapiens) (UniProt Q8TDC3); conditions: Compound concentration 1000.0 nM
# T3 sequence (whole entry): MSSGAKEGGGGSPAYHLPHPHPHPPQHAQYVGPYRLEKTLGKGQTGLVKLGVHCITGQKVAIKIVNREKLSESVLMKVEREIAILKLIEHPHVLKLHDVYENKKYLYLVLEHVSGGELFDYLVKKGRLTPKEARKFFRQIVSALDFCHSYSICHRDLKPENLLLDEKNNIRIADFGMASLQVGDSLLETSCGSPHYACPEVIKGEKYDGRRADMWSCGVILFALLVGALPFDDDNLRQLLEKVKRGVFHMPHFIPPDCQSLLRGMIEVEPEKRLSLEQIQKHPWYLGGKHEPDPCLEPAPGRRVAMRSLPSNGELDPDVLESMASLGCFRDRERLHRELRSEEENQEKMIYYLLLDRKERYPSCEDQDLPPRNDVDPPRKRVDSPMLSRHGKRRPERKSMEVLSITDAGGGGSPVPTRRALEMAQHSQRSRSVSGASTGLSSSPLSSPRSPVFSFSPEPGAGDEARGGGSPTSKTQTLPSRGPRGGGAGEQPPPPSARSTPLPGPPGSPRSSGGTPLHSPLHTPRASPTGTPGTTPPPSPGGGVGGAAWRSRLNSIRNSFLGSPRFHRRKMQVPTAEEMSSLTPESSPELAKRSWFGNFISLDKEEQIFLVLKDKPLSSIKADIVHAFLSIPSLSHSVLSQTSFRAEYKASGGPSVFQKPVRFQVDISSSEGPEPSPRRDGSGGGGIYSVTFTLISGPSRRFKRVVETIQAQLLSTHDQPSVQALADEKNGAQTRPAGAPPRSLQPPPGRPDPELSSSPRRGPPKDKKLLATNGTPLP
# [7] = target: Activated CDC42 kinase 1 (Homo sapiens) (UniProt Q07912); conditions: Compound concentration 1000.0 nM
# Chain of Activated CDC42 kinase 1 (Homo sapiens) (Q07912 whole entry, looked up): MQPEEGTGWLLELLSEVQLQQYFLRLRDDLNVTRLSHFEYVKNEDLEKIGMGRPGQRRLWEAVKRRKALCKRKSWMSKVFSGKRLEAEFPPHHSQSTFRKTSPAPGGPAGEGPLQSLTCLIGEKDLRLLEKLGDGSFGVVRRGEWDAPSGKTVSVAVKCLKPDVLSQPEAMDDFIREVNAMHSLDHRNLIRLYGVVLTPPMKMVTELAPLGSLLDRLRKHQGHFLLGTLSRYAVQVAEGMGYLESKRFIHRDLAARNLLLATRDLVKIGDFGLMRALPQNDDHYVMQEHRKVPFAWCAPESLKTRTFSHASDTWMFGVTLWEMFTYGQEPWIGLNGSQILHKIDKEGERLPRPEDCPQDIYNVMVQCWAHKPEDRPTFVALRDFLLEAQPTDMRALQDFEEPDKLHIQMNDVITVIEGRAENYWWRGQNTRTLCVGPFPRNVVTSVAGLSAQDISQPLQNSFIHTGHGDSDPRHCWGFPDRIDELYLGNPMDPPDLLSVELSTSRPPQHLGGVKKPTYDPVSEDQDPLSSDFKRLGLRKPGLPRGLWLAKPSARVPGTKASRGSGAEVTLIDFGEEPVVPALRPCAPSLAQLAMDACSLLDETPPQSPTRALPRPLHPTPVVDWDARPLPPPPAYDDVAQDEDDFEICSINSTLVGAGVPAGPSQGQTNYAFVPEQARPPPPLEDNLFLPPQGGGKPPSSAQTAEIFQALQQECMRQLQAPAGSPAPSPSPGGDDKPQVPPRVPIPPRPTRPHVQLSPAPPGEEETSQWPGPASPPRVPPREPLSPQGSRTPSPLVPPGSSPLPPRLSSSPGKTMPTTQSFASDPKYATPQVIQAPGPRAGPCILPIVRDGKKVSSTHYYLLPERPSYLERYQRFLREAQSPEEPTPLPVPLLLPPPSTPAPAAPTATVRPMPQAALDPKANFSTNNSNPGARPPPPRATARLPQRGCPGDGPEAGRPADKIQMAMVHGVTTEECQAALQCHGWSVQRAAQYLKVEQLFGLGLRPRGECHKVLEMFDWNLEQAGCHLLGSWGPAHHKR
# [8] = target: Cyclin-dependent kinase 11B (Homo sapiens) (UniProt P21127); conditions: Compound concentration 1000.0 nM
# Chain of Cyclin-dependent kinase 11B (Homo sapiens) (P21127 whole entry): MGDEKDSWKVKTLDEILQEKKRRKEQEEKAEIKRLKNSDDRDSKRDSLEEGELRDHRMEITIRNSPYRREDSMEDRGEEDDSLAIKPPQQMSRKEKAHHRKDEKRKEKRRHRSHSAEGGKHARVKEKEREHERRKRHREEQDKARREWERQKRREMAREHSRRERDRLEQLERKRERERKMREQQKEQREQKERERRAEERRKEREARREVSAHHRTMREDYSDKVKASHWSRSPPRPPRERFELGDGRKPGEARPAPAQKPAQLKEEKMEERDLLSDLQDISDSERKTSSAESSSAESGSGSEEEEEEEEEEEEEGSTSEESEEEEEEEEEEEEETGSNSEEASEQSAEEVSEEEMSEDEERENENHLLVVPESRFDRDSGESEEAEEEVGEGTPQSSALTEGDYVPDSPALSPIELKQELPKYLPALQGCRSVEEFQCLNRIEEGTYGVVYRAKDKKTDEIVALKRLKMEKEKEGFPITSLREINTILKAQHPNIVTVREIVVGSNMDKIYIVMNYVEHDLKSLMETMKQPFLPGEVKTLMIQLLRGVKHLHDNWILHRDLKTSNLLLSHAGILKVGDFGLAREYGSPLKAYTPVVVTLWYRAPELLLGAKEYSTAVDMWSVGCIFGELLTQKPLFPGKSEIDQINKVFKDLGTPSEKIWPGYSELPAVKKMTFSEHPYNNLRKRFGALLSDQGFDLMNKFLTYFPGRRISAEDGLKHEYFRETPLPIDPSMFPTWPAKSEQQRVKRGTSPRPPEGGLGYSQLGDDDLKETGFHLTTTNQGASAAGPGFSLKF
# [9] = system: Receptor-type tyrosine-protein kinase FLT3 (Homo sapiens), P36888 [D835Y]; conditions: Compound concentration 1000.0 nM
# [10] = target: Cyclin-dependent kinase 14 (Homo sapiens) (UniProt O94921); conditions: Compound concentration 1000.0 nM
# [11] = target: Casein kinase I isoform delta (Homo sapiens) (UniProt P48730); conditions: Compound concentration 1000.0 nM
# Chain of Casein kinase I isoform delta (Homo sapiens) (P48730 whole entry, looked up, canonical isoform): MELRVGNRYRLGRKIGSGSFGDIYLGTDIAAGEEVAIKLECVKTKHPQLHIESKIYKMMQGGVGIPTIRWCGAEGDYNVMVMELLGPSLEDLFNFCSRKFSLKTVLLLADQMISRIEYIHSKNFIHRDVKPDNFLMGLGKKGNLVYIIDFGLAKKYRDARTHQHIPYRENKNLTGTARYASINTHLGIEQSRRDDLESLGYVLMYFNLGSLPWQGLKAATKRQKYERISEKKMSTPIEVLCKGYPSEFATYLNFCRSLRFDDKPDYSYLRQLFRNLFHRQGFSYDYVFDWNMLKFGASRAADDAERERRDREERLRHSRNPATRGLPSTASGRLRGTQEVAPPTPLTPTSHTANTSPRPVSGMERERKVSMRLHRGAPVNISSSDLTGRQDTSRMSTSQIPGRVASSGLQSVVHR
# [12] = target: Insulin-like growth factor 1 receptor (Homo sapiens) (UniProt P08069); conditions: Compound concentration 1000.0 nM
# [13] = target: Sodium-dependent noradrenaline transporter (Homo sapiens) (UniProt P23975); conditions: Compound concentration 10.0 uM
# Chain of Sodium-dependent noradrenaline transporter (Homo sapiens) (P23975 whole entry): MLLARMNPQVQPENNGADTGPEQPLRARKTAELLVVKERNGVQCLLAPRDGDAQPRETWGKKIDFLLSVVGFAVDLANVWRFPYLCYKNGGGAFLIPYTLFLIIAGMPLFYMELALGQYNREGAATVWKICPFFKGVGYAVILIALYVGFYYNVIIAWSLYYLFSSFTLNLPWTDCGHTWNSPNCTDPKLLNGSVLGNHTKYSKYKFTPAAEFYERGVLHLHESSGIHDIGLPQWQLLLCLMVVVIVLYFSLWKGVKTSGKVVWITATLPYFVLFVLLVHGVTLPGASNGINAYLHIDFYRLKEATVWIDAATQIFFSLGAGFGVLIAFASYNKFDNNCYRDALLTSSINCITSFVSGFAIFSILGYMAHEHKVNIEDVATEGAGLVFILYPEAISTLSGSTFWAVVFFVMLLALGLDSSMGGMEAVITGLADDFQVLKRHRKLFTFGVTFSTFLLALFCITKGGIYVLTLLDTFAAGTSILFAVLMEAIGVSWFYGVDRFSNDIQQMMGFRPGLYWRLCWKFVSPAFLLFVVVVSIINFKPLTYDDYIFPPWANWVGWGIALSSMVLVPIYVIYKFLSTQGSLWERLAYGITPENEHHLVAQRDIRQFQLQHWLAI
# [14] = target: Ribosomal protein S6 kinase alpha-2 (Homo sapiens, UniProt Q15349); conditions: Compound concentration 1000.0 nM
# [15] = target: Platelet-derived growth factor receptor beta (Homo sapiens) (UniProt P09619); conditions: Compound concentration 1000.0 nM
# [16] = target: D(1B) dopamine receptor (Homo sapiens) (UniProt P21918); conditions: Compound concentration 10.0 uM
# Chain of D(1B) dopamine receptor (Homo sapiens) (P21918 whole entry): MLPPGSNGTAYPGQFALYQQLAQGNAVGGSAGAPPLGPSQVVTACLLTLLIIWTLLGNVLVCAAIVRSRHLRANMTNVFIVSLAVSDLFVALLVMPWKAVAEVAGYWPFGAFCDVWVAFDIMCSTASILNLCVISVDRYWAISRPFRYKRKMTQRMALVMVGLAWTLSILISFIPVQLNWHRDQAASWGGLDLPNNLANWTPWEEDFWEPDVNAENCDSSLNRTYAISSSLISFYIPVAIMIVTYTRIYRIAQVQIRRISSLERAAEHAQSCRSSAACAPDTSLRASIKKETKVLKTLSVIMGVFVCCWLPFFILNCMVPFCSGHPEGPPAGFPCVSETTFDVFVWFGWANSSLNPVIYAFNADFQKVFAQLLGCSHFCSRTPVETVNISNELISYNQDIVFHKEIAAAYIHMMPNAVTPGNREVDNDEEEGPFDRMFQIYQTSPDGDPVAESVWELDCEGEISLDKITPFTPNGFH
# [17] = target: Receptor tyrosine-protein kinase erbB-2 (Homo sapiens) (UniProt P04626); conditions: Compound concentration 1000.0 nM
# Chain of Insulin receptor (Homo sapiens) (P06213 28-758 limits assumed): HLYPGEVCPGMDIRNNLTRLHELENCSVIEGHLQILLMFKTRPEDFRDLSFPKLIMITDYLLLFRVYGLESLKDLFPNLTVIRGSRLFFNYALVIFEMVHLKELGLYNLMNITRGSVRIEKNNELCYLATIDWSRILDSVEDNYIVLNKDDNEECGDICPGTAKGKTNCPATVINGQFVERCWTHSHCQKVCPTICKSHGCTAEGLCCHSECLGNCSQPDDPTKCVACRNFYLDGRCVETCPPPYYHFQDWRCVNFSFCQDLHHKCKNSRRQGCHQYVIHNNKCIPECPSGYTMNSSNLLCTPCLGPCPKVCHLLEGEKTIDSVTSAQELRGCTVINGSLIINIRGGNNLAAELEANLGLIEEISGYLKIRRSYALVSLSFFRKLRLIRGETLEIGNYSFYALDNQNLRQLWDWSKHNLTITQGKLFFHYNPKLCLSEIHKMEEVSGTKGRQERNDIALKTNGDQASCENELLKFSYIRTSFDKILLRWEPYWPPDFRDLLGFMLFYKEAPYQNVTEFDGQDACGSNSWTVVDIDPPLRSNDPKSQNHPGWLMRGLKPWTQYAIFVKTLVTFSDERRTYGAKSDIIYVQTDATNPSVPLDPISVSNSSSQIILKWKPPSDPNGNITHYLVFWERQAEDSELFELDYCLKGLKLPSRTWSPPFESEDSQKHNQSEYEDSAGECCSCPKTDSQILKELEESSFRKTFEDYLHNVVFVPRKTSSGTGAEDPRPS
# Chain of Insulin receptor (Homo sapiens) (P06213 763-1382 limits assumed): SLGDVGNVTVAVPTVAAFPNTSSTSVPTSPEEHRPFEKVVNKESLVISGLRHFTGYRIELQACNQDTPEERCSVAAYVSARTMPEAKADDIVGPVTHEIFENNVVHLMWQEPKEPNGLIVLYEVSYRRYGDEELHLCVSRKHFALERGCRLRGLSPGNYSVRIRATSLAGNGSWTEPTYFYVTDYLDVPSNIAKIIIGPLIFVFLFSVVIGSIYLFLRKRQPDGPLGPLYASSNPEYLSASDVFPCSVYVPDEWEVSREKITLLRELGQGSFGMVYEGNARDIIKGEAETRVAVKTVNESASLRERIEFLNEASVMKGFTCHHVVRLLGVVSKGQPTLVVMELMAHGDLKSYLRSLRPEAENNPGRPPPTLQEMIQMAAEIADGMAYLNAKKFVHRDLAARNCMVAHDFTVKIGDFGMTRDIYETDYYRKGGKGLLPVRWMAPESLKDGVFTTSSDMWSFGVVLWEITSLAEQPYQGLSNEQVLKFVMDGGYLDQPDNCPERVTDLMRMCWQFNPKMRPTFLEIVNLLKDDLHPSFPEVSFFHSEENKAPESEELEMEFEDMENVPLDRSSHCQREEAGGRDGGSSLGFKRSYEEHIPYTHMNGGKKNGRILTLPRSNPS
SMILES,residual activity [1] [%],residual activity [2] [%],residual activity [3] [%],residual activity [4] [%],residual activity [5] [%],residual activity [6] [%],residual activity [7] [%],residual activity [8] [%],residual activity [9] [%],residual activity [10] [%],residual activity [11] [%],residual activity [12] [%],inhibition [13] [%],residual activity [14] [%],residual activity [15] [%],inhibition [16] [%],residual activity [17] [%]
CC1=C(C#N)C(c2ccc3c(c2)c(NC(=O)c2ccccc2C)nn3C)C(C#N)=C(C)N1 [BAY-974],100,100,99,100,73,100,86,100,82,100,89,96,2.85,94,94,14.6,86
CCc1ccccc1C(=O)Nc1n[nH]c2c(C)c(F)c(C3C(C#N)=C(C)N(C)C(C)=C3C#N)cc12 [BAY-3827],100,72,100,96,100,55,81,100,2.5,83,100,87,2.8,100,82,8.47,71

# Source: ChEMBL document CHEMBL4507319 (2021)
